The values that follow come from US10730868B2, “Bicyclic heteroaryl substituted compounds” (BRISTOL-MYERS SQUIBB COMPANY, priority 2016, dated 2020).

Where two headings read alike, the source gives them in different places.

The test addresses PAR4 (Homo sapiens (Human), UniProt Q96RI0). Put plainly: PAR4 FLIPR assay (antagonism of agonist-peptide-induced calcium mobilization). In kind it is cell-based. The conditions noted are these: PAR4-expressing HEK293 cells, read-out: PAR4 FLTPR assay (IC50). Summed up: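 HEK293 cells stably expressing human PAR4 (also endogenous PAR1), loaded with fluorescent calcium indicator in HBSS/20 mM HEPES; compounds added at 0.17% DMSO, read on FDSS for agonism, then 30 min RT before H-Ala-Phe(4-F)-peptide agonist challenge. Potency from 11-point concentration-response curves.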

The mark [1] stands for this setting: H-Ala-Phe(4-F)-[…]NH2-induced intracellular calcium mobilization.
[2] abbreviates: H-Ala-Phe(4-F)-Pro-Gly-Trp-Leu-Val-Lys-Asn-Gly-NH2-induced intracellular calcium mobilization.

Chain of PAR4 (Q96RI0 18-385): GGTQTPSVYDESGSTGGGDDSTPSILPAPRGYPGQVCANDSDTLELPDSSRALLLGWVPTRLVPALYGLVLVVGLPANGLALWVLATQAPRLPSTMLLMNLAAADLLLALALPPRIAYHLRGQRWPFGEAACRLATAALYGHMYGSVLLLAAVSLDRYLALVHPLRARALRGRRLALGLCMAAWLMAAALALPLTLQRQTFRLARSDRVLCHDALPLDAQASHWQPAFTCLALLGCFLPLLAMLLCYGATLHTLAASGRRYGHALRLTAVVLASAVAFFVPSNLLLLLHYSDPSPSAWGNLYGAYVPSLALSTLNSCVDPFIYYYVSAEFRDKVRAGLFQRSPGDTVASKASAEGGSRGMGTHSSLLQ

By IC50 is commonly meant the concentration needed to halve the response being measured. For the compound `COc1ccc(NC(=O)O[C@H]2CCOC[C@H]2Oc2cc3sc(-c4cc(C)cc5nc(OC)cnc45)nc3cc2F)cn1` (racemic) [Example 88, rac-cis-3-((5-fluoro-2-(2-methoxy-7-methylquinoxalin-5-yl)benzoldithiazol-6-yl)oxy)tetrahydro-2H-pyran-4-yl (6-methoxypyridin-3-yl)carbamate], the IC50 under setting [1] amounted to 21 nM. `COc1cnc2c(-c3nc4cc(F)c(O[C@@H]5CCC[C@@H]5OC)cc4s3)cc(C)cc2n1` (racemic) [Example 40, rac-5-fluoro-2-(2-methoxy-7-methylquinoxalin-5-yl)-6-((cis-2-methoxycyclopentyl)oxy)benzo[d]thiazole]: the IC50 under setting [1] was found to be 83 nM. For the compound `COc1cnc2c(-c3nc4cc(F)c(O[C@@H]5CC[C@@H]5OC(=O)Nc5cnc(OCCO)nc5)cc4s3)cc(C)cc2n1` [Example 68], the IC50 under setting [2] amounted to 0.75 nM. In the case of `COc1cnc2c(-c3nc4cc(F)c(O[C@H]5CC(C)(C)C[C@H]5OC(=O)Nc5cnc(C)nc5)cc4s3)cc(C)cc2n1` (single isomer, unassigned; enantiomer 1) [Example 84, (cis)-2-((5-fluoro-2-(2-methoxy-7-methylquinoxalin-5-yl)benzo[d]thiazol-6-yl)oxy)-4,4-dimethylcyclopentyl (2-methylpyrimidin-5-yl)carbamate Enantiomer 1], the IC50 under setting [1] was found to be 5.4 nM. On the same count and under the same terms, to `COc1cnc2c(-c3nc4cc(F)c(O[C@@H]5CC[C@@H]5OC(=O)Nc5cnc(OCCO)nc5)cc4s3)cc(C)cc2n1` (racemic) [Example 71] belongs 1.6 nM.

For the compound `COc1cnc2c(-c3nc4cc(F)c(O[C@H]5CC(F)(F)CC[C@H]5OC(=O)Nc5ccnc(OCCC(C)(C)O)c5)cc4s3)cc(C)cc2n1` [Example 8], the IC50 under setting [2] is 1.2 nM. For `COc1cnc2c(-c3nc4cc(F)c(O[C@@H]5CCCC[C@@H]5OC(=O)Nc5cccnc5)cc4s3)cc(C)cc2n1` (racemic) [Example 55, rac-cis-2-((5-fluoro-2-(2-methoxy-7-methylquinoxalin-5-yl)benzo[d]thiazol-6-yl)oxy) cyclohexyl pyridin-3-ylcarbamate], under setting [1], the IC50 came out at 1.4 nM. In the case of `COc1cnc2c(-c3nc4cc(F)c(O[C@@H]5CC[C@@H]5OC(=O)Nc5cnc(OCCO)nc5)cc4s3)cc(Cl)cc2c1` [Example 76], under setting [2], the IC50 amounted to 10 nM. For the compound `COc1ccc(NC(=O)O[C@H]2CCN(C(=O)OC(C)(C)C)C[C@H]2Oc2cc3sc(-c4cc(C)cc5nc(OC)cnc45)nc3cc2F)cn1` (racemic) [Example 92, rac-cis-tert-butyl 3-((5-fluoro-2-(2-methoxy-7-methylquinoxalin-5-yl)benzo[d]thiazol-6-yl)oxy)-4-(((6-methoxypyridin-3-yl)carbamoyl)oxy)piperidine-1-carboxylate], the IC50 under setting [1] worked out at 12 nM. For `COc1cnc2c(-c3nc4cc(F)c(O[C@@H]5CCC[C@H]5O)cc4s3)cc(CO)cc2n1` (racemic) [Example 43, rac-trans-2-((5-fluoro-2-(7-(hydroxymethyl)-2-methoxyquinoxalin-5-yl)benzo[d]thiazol-6-yl)oxy)cyclopentanol], the 50% inhibitory concentration (IC50) under setting [1] stood at 22 nM. As to `COc1cnc2c(-c3nc4cc(F)c(O[C@@H]5CC[C@@H]5OC(=O)Nc5cnc(CCO)nc5)cc4s3)cc(C)cc2n1` [Example 70], the IC50 under setting [2] worked out at 9 nM.

Take `CCOc1cnc2c(-c3nc4cc(F)c(O[C@H]5CC(F)(F)CC[C@H]5OC(=O)Nc5cnc(C)nc5)cc4s3)cc(C)cc2n1` [Example 18, (1R,2S)-2-((2-(2-ethoxy-7-methylquinoxalin-5-yl)-5-fluorobenzo[d]thiazol-6-yl)oxy)-4,4-difluorocyclohexyl (2-methylpyrimidin-5-yl)carbamate]: under setting [2], the IC50 was 3.9 nM.
